Test results from US11578061B2, “Inhibitors of LRRK2 kinase” (Halia Therapeutics, Inc., priority 2021, dated 2023).

These compounds were tested against recombinant human LRRK2 (catalytic domain only [amino acids 970-2527], GST-tagged) (Homo sapiens (Human), UniProt Q5S007) (assay: LRRK2 Enzymatic Assay). Details: LRRKtide substrate, [32P]-ATP.
Format: biochemical
Summary of the method: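 GST-tagged catalytic domain (aa 970-2527) at 30 nM with 20 μM LRRKtide in HEPES pH 7.5/MgCl2 buffer, 1% DMSO; compounds (10 μM to 0.5 nM) preincubated 20 min, then [32P]-ATP added for 2 h at room temperature. P81 phosphocellulose capture; activity as % of vehicle, IC50 by curve fit.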

Sequence of recombinant human LRRK2 (catalytic domain only [amino acids 970-2527], GST-tagged) (Q5S007 970-2527): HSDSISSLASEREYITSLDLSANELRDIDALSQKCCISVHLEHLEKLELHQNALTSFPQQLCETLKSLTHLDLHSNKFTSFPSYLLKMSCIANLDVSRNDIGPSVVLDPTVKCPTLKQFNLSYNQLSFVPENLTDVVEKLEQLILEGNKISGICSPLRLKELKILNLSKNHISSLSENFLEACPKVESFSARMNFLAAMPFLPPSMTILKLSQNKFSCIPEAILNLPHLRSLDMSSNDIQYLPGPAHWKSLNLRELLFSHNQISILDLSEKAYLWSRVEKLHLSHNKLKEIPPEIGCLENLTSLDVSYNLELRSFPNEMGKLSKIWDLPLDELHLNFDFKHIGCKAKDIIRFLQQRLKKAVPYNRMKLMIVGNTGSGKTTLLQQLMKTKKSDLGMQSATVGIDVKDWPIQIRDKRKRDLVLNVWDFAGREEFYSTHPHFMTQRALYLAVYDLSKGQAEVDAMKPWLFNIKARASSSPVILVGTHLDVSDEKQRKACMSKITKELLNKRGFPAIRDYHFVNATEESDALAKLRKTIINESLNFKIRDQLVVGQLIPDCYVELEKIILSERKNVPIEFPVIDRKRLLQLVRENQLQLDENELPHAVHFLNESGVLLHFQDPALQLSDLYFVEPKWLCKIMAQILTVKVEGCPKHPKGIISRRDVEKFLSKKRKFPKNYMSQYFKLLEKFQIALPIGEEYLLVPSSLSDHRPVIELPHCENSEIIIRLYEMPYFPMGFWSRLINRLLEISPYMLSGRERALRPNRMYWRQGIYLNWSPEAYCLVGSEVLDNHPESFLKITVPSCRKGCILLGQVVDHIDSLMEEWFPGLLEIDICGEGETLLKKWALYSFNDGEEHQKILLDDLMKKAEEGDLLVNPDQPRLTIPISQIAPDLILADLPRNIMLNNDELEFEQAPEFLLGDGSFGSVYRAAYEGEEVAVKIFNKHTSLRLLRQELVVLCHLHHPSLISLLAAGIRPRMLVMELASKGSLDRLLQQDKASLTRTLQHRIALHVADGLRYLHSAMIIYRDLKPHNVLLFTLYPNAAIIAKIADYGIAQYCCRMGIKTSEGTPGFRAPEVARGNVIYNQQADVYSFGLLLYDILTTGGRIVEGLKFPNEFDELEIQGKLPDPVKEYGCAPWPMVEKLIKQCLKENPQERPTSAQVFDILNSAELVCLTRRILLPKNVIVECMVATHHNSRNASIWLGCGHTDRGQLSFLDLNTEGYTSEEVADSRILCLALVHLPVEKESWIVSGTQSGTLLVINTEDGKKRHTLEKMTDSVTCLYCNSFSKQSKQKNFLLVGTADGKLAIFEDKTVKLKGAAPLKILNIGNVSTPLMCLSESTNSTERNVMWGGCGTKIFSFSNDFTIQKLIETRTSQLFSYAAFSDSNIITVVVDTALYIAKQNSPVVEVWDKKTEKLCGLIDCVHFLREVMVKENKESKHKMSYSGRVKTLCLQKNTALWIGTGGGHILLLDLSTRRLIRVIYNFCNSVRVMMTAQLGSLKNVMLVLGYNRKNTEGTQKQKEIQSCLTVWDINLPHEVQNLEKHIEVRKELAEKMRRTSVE

| IC50 | Compound |
| --- | --- |
| > 400 nM | Cc1nc(Nc2ccc(N3CCOCC3)cc2)nc(OC[C@H]2CC[C@H](O)CC2)c1F [Example 265, (1R,4R)-4-(((5-fluoro-6-methyl-2-((4-morpholinophenyl)amino)pyrimidin-4-yl)oxy)methyl)cyclohexan-1-ol] |
| > 400 nM | Cc1nc(Nc2ccc(N3C[C@@H](C)O[C@@H](C)C3)cc2)nc(OC[C@H]2CC[C@H](O)CC2)c1F [Example 266, (1R,4R)-4-(((2-((4-((2S,6R)-2,6-dimethylmorpholino)phenyl)amino)-5-fluoro-6-methylpyrimidin-4-yl)oxy)methyl)cyclohexan-1-ol] |
| > 400 nM | Cc1nn(C(C)(C)C#N)cc1Nc1nc(C)c(F)c(OC[C@H]2CC[C@H](O)CC2)n1 [Example 267, 2-(4-((5-fluoro-4-(((1R,4R)-4-hydroxycyclohexyl)methoxy)-6-methylpyrimidin-2-yl)amino)-3-methyl-1H-pyrazol-1-yl)-2-methylpropanenitrile] |
| 50 to 200 nM | Fc1cnc(Nc2ccc(N3CCOCC3)cc2)nc1OCC1CCC(F)(F)CC1 [Example 268, 4-((4,4-difluorocyclohexyl)methoxy)-5-fluoro-N-(4-morpholinophenyl)pyrimidin-2-amine] |
| 200 to 400 nM | C[C@@H]1CN(c2ccc(Nc3ncc(F)c(OCC4CCC(F)(F)CC4)n3)cc2)C[C@H](C)O1 [Example 269, 4-((4,4-difluorocyclohexyl)methoxy)-N-(4-((2R,6S)-2,6-dimethylmorpholino)phenyl)-5-fluoropyrimidin-2-amine] |
| 50 to 200 nM | Cc1nn(C(C)(C)C#N)cc1Nc1ncc(F)c(OCC2CCC(F)(F)CC2)n1 [Example 270, 2-(4-((4-((4,4-difluorocyclohexyl)methoxy)-5-fluoropyrimidin-2-yl)amino)-3-methyl-1H-pyrazol-1-yl)-2-methylpropanenitrile] |
| 50 to 200 nM | C[C@@H]1CN(c2ccc(Nc3ncc(F)c(OCC4CCC(F)(F)C4)n3)cc2)C[C@H](C)O1 (stereo partly drawn) [Example 271, 4-((3,3-difluorocyclopentyl)methoxy)-N-(4-((2S,6R)-2,6-dimethylmorpholino)phenyl)-5-fluoropyrimidin-2-amine] |
| 50 to 200 nM | CCO[C@H]1CC[C@@H](COc2nc(Nc3ccc(N4CCOCC4)cc3)ncc2F)CC1 [Example 275, 4-(((1S,4S)-4-ethoxycyclohexyl)methoxy)-5-fluoro-N-(4-morpholinophenyl)pyrimidin-2-amine] |
| 50 to 200 nM | CCO[C@H]1CC[C@@H](COc2nc(Nc3ccc(N4C[C@@H](C)O[C@@H](C)C4)cc3)ncc2F)CC1 [Example 276, N-(4-((2S,6R)-2,6-dimethylmorpholino)phenyl)-4-(((1S,4S)-4-ethoxycyclohexyl)methoxy)-5-fluoropyrimidin-2-amine] |
| < 50 nM | CCO[C@H]1CC[C@@H](COc2nc(Nc3cn(C(C)(C)C#N)nc3C)ncc2F)CC1 [Example 277, 2-(4-((4-(((1s,4s)-4-ethoxycyclohexyl)methoxy)-5-fluoropyrimidin-2-yl)amino)-3-methyl-1H-pyrazol-1-yl)-2-methylpropanenitrile] |
| > 400 nM | C[C@@H]1CN(c2ccc(Nc3ncc(F)c(OCC4CCC(OC(F)(F)F)CC4)n3)cc2)C[C@H](C)O1 (stereo partly drawn) [Example 283, N-(4-((2S,6R)-2,6-dimethylmorpholino)phenyl)-5-fluoro-4-((4-(trifluoromethoxy)cyclohexyl)methoxy)pyrimidin-2-amine] |
| 200 to 400 nM | C[C@@H]1CN(c2ccc(Nc3ncc(F)c(OC[C@H]4CC[C@H](OC(F)F)CC4)n3)cc2)C[C@H](C)O1 [Example 285, 4-(((1R,4R)-4-(difluoromethoxy)cyclohexyl)methoxy)-N-(4-((2S,6R)-2,6-dimethylmorpholino)phenyl)-5-fluoropyrimidin-2-amine] |
| 50 to 200 nM | Cc1nn(C(C)(C)C#N)cc1Nc1ncc(F)c(OC[C@H]2CC[C@H](OC(F)F)CC2)n1 [Example 286, 2-(4-((4-(((1R,4R)-4-(difluoromethoxy)cyclohexyl)methoxy)-5-fluoropyrimidin-2-yl)amino)-3-methyl-1H-pyrazol-1-yl)-2-methylpropanenitrile] |
| > 400 nM | O=S1(=O)CCC(COc2nc(Nc3ccc(N4CCOCC4)cc3)ncc2F)CC1 [Example 287, 4-(((5-fluoro-2-((4-morpholinophenyl)amino)pyrimidin-4-yl)oxy)methyl)tetrahydro-2H-thiopyran 1,1-dioxide] |
| > 400 nM | C[C@@H]1CN(c2ccc(Nc3ncc(F)c(OCC4CCS(=O)(=O)CC4)n3)cc2)C[C@H](C)O1 [Example 288, 4-(((2-((4-((2R,6S)-2,6-dimethylmorpholino)phenyl)amino)-5-fluoropyrimidin-4-yl)oxy)methyl)tetrahydro-2H-thiopyran 1,1-dioxide] |
| > 400 nM | Cc1nn(C(C)(C)C#N)cc1Nc1ncc(F)c(OCC2CS(=O)(=O)C2)n1 [Example 289, 2-(4-((4-((1,1-dioxidothietan-3-yl)methoxy)-5-fluoropyrimidin-2-yl)amino)-3-methyl-1H-pyrazol-1-yl)-2-methylpropanenitrile] |
